Assays:
[1] = target: T1, Human Rheumatoid Synovial Collagenase (Homo sapiens, UniProt P03956); experiment: Collagenase inhibition (procedure of Cawston and Barrett, acetyl 14C collagen); format: biochemical; conditions: 37° C., 16 hours, native acetyl 14C collagen, Tris HCl-CaCl2 pH 7.6
T1 construct: from tissue
T1 sequence (P03956 100-469): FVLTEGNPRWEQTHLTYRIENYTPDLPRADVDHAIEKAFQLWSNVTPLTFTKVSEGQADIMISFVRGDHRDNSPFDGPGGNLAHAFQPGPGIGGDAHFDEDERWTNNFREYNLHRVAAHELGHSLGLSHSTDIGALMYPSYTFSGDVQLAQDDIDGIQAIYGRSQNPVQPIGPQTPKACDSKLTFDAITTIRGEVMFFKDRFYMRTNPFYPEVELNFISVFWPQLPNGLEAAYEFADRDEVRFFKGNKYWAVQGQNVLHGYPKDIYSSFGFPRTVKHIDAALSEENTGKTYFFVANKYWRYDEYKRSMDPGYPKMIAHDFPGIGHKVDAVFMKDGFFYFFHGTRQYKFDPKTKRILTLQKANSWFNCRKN
Experimental: This was determined following the procedure of Cawston and Barrett, Anal. Biochem., 99, 340-345 (1979) whereby the 1 mM of the inhibitor being tested or dilutions thereof are incubated at 37° C. for 16 hours with native collagen and collagenase (buffered with Tris HCl--CaCl2; pH 7.6). The collagen is acetyl ^14 C collagen. The samples are centrifuged to sediment undigested collagen and an aliquot of the radiactive supernatant removed for assay on a scintillation counter as a measure of hydrolysis. The collagenase activity in the presence of 1 mM inhibitor, or a dilution thereof, is compared to activity in a control devoid of inhibitor and the results reported as that inhibitor concentration effecting 50% inhibition of the collagenase.

[2] = test system: rat model of inflammatory arthritis; experiment: Rat model of inflammatory arthritis induced by Type II collagen (Trentham et al.); format: in vivo; conditions: prednisolone 0.625 mg/kg b.i.d.
Experimental: The therapeutic effectivness is assessed in the rat model of inflammatory arthritis described by Trentham et al. (1977). In this model, the arthritis, induced by an intradermal injection of Type II collagen, generally develops in both hind paws and the progression and severity of the lesion are monitored by physical measurements of the malleolar width and ankle extensibility.
The compound of Example II in the present specification was administered by intraperitoneal injections at 100 mg/kg twice daily for 21 days commencing seven days after the injection of the disease.
Drugs (Example 11 or prednisolone) and vehicle were administered to groups of 10 rats each. Physical measurements on the rat paws were made weekly for four weeks and consisted of (a) the distance between the medial and lateral malleolus (malleolar width) and (b) the ankle extension which was measured by applying a standard force to th rat paw and measuring the angle formed between the flexor surface of the foot and the tibia. Evidence of a therapeutic effect was denoted by a significant reduction in malleolar width and a significant increase in ankle extension. Both measurements were carried out in apparatus designed for the purpose. Area-under-the-curve data from these time course experiments was examinaed by non-parametic statistical analysis. The prednisolone standard was given at a dose of 0.625 mg/kg b.i.d. Prednisolone was chosen as a standard since steroids are known to be effective both clinically in Rheumatoid Arthritis and in animal models of arthritis.

[3] = arthritic rats' paws, Example 11 100 mg/kg i.p. twice daily for 21 days, area-under-the-curve data
[4] = mean of experiments 1-3, Example 11 100 mg/kg i.p. twice daily

Compound	IC50 [1]	further results
CNC(=O)[C@H](Cc1ccc(OCc2ccccc2)cc1)NC(=O)[C@H](CC(C)C)N[C@H](C)C(=O)O [Example 5, N[1-(R)-Carboxyethyl]-L-leucyl-O-benzyl-L-tyrosine N-Methylamide]	1.7 µM	–
CC(C)C[C@H](N[C@H](C)C(=O)O)C(=O)NCCc1ccccc1 [Example 6, N[1-(R)-Carboxyethyl]-L-Leucine N-Phenethylamide]	42 µM	–
CNC(=O)[C@H](Cc1ccc(OC)cc1)NC(=O)[C@H](CC(C)C)N[C@H](CCSC)C(=O)O [Example 7, N[1-(R)-Carboxy-3-methylthiopropyl]-L-leucyl-O-methyl-L-tyrosine N-methylamide]	5.5 µM	–
CNC(=O)[C@H](Cc1ccc(OC)cc1)NC(=O)[C@H](CC(C)C)N[C@H](CCCNC(=O)OCc1ccccc1)C(=O)O [Example 9, N-[4-N-(Benzyloxycarbonyl)amino-1-(R)-carboxybutyl]-L-leucyl-O-methyl-L-tyrosine N-Methylamide]	9.5 µM	–
CNC(=O)[C@H](Cc1ccc(O)cc1)NC(=O)[C@H](CC(C)C)N[C@H](CCNC(=O)c1ccccc1)C(=O)O [Example 15, N-[3-N-(Benzoyl)amino-1-(R)-carboxy-propyl]-L-leucyl-L-tyrosine N-Methylamide]	3.1 µM	–
CC(C)C[C@H](N[C@H](CCNC(=O)OCc1ccccc1)C(=O)O)C(=O)NCCc1ccccc1 [Example 19, N-[3-N-(Benzyloxycarbonyl)amino-1-(R)-carboxypropyl]-L-leucine N-Phenethylamide]	51 µM	–
CNC(=O)[C@H](Cc1ccc(OC)cc1)NC(=O)[C@H](CC(C)C)N[C@H](CCCCNC(=O)[C@@H]1CCCN1C(C)=O)C(=O)O [Example 22, N-[5-N-[N-Acetyl-L-prolyl]amino-1-(R)-carboxypentyl]-L-leucyl-O-methyl-L-tyrosine N-Methylamide]	42 µM	–
CCCCNC(=O)[C@H](C)NC(=O)[C@H](CCCC)N[C@H](C)C(=O)O [Example 24, N-(1-(R)-Carboxyethyl)-S-norleucyl-S-alanine. N-Butylamide]	19 µM	–
CNC(=O)[C@H](Cc1ccc(O)cc1)NC(=O)[C@H](CC(C)C)N[C@H](CCNC(=O)OCc1ccccc1)C(=O)O [Example 25, N-[3-N-(Benzyloxycarbonyl)amino-1-(R)-carboxypropyl]-L-leucyl-L-tyrosine N -Methylamide]	1.2 µM	–
CCCOc1ccc(C[C@H](NC(=O)[C@H](CC(C)C)N[C@H](CCNC(=O)OCc2ccccc2)C(=O)O)C(=O)NC)cc1 [Example 26, N-(3-N-(Benzyloxycarbonyl)amino-1-(R)-carboxypropyl)-L-leucyl-O-propyl-L-tyrosine N-methyl amide]	0.74 µM	–
CNC(=O)[C@H](Cc1ccc(OC(C)(C)C)cc1)NC(=O)[C@H](CC(C)C)N[C@H](CCNC(=O)OCc1ccccc1)C(=O)O [Example 28]	3.6 µM	–
CCCCCOc1ccc(C[C@H](NC(=O)[C@H](CC(C)C)N[C@H](CCNC(=O)OCc2ccccc2)C(=O)O)C(=O)NC)cc1 [Example 29, N-[3-N-(Benzyloxycarbonyl)amino-1-(R)-carboxypropyl]-L-leucyl-O-pentyl-L-tyrosine N-Methylamide]	0.54 µM	–
CNC(=O)[C@H](Cc1ccc(OCCC(C)C)cc1)NC(=O)[C@H](CC(C)C)N[C@H](CCNC(=O)OCc1ccccc1)C(=O)O [Example 30, N[3-N-(Benzyloxycarbonyl)amino-1-(R)-carboxypropyl]-L-leucyl-O-3(methyl)butyl-L-tyrosine N-methyl amide]	1.1 µM	–
CNC(=O)[C@H](Cc1ccc(OCCCCCC(C)C)cc1)NC(=O)[C@H](CC(C)C)N[C@H](CCNC(=O)OCc1ccccc1)C(=O)O [Example 31, N-[3-N-(Benzyloxycarbonyl)amino-1-(R)-carboxypropyl]-L-leucyl-O-6(methyl)heptyl-L-tyrosine N-methyl amide]	2.5 µM	–
CNC(=O)[C@H](Cc1ccc(OC2CCCC2)cc1)NC(=O)[C@H](CC(C)C)N[C@H](CCNC(=O)OCc1ccccc1)C(=O)O [Example 33, N-[3-N-(Benzyloxycarbonyl)amino-1-(R)-carboxypropyl]-L-leucyl-O-cyclopentyl-L-tyrosine N-Methylamide]	0.74 µM	–
CCCCNC(=O)COc1ccc(C[C@H](NC(=O)[C@H](CC(C)C)N[C@H](CCNC(=O)OCc2ccccc2)C(=O)O)C(=O)NC)cc1 [Example 34, N-[3-N-(Benzyloxycarbonyl)amino-1-(R)-carboxypropyl]-L-leucyl-O-(2-aminobutyl-2-oxo)ethyl-L-tyrosine N-Methylamide]	2.6 µM	–
COc1ccc(C[C@H](NC(=O)[C@H](CC(C)C)N[C@H](CCNC(=O)OCc2ccccc2)C(=O)O)C(=O)NCCc2ccccc2)cc1 [Example 36, N-[3-N-(Benzyloxycarbonyl)amino-1-(R)-carboxypropyl]-L-leucyl-O-methyl-L-tyrosine N-Phenethylamide]	1 µM	–
C[C@]12C=CC(=O)C=C1CC[C@@H]1[C@@H]2[C@@H](O)C[C@@]2(C)[C@H]1CC[C@]2(O)C(=O)CO [Prednisolone, prednisolone, reference compound]	–	Ankle extension, percentage change from control, experiment number 2 [2, 3]: 96%; Ankle extension, percentage change from control, experiment number 3 [2, 3]: 95%; Malleolar width, percentage change from control, experiment number 1 [2, 3]: 98%; Malleolar width, percentage change from control, experiment number 2 [2, 3]: 96%; Malleolar width, percentage change from control, experiment number 3 [2, 3]: 97%; Ankle extension, percentage change from control, mean [2, 4]: 97%; Malleolar width, percentage change from control, mean [2, 4]: 97%

The remaining compounds from weak to strong by IC50 [1], led by results:

IC50 [1]	Compound	further results
91 µM	CNC(=O)[C@H](Cc1ccc(OC)cc1)NC(=O)[C@H](CC(C)C)N[C@H](CCN)C(=O)O [Example 13, N-[3-Amino-1-(R)-carboxypropyl]-L-leucyl-O-methyl-L-tryosine N-Methylamide]	–
11 µM	CNC(=O)[C@H](Cc1ccc(OC)cc1)NC(=O)[C@H](CC(C)C)N[C@H](CCCCNC(=O)OCc1ccccc1)C(=O)O [Example 21, N-[5-N-(Benzyloxycarbonyl)amino-1-(R)-carboxypentyl]-L-leucyl-O-methyl-L-tyrosine N-Methylamide]	–
4.9 µM	CNC(=O)[C@H](Cc1ccc(OC)cc1)NC(=O)[C@H](CC(C)C)N[C@H](CCNC(=O)c1ccc([N+](=O)[O-])cc1)C(=O)O [Example 16, N-[3-N-(P-Nitrobenzoyl)amino-1-(R)-carboxypropyl]-L-leucyl-O-methyl-L-tyrosine. N-Methylamide]	–
2.4 µM	N-[3-N-(Benzyloxycarbonyl)amino-1-(R)-carboxypropyl]-L-leucyl-O-(2'-carboxyethyl-L-leucyl N-Methylamide)-L-tyrosine N-Methylamide [Example 35]	–
2.1 µM	CNC(=O)[C@H](Cc1ccc(OC(C)C)cc1)NC(=O)[C@H](CC(C)C)N[C@H](CCNC(=O)OCc1ccccc1)C(=O)O [Example 27, N-[3-N-(Benzyloxycarboxyl)amino-1-(R)-carbonypropyl]-L-leucyl-O-isopropyl-L-tyrosine N-methylamide]	–
1.3 µM	N-[3-(N'-Benzyl)carbamoyl-1-(R)-carboxypropyl]-L-leucyl-O-methyl-L-tyrosineN-Methylamide [Example 18]	–
1.2 µM	CNC(=O)[C@H](Cc1ccc(OC)cc1)NC(=O)[C@H](CC(C)C)N[C@H](CCNC(=O)OCc1ccc([N+](=O)[O-])cc1)C(=O)O [Example 14, N-[3-N-(p-Nitrobenzyloxycarbonyl)amino-1-(R)-carboxypropyl]-L-leucyl-O-methyl-L-tyrosine N-Methylamide]	–
0.91 µM	CNC(=O)[C@H](Cc1ccc(OCc2ccccc2)cc1)NC(=O)[C@H](CC(C)C)N[C@H](CCNC(=O)OCc1ccccc1)C(=O)O [Example 32, N-[3-N-(Benzyloxycarbonyl)amino-1-(R)-carboxypropyl]-L-leucyl-O-benzyl-L-tyrosine N-Methylamide]	–

Source: patent publication US4568666A, “Carboxylalkyl peptide derivatives” (G. D. Searle & Co., priority 1984, dated 1986)
